IC50 and inhibition data for 45 compounds are collected here from ChEMBL document CHEMBL1122981, “Specific inhibition of benzodiazepine receptor binding by some N-(indol-3-ylglyoxylyl)amino acid derivatives” (J Med Chem, 1985).

Each structure is given as a SMILES string. pIC50: −log10 of the molar value.

Assay [1] addresses GABA-A receptor; anion channel. The assay is described as follows: Inhibition of [3H]flunitrazepam binding to GABA-A central Benzodiazepine receptor of bovine brain membranes. It counts as cell membranes, Bos taurus.
In assay [2] the target is GABA-A receptor; anion channel (Bos taurus) (UniProt P10063+P08220+P20237+P08219+P10064+P22300). The assay is described as follows: Inhibition of specific [3H]flunitrazepam binding to benzodiazepine receptor at 250 uM. It counts as protein-complex assay.

`CC(C)C(NC(=O)C(=O)c1c[nH]c2ccc([N+](=O)[O-])cc12)C(=O)O` (stereo not drawn) had a pIC50 in assay [1] of 4.22. The compound also yielded an inhibition in assay [2] of 83%.

Take `CCOC(=O)C(Cc1ccccc1)NC(=O)C(=O)c1c[nH]c2ccc(Br)cc12` (stereo not drawn): in assay [2], the inhibition was determined as 65%.

In turn, `O=C(NC(Cc1c[nH]c2ccccc12)C(=O)O)C(=O)c1c[nH]c2ccccc12` (stereo not drawn) came in with an inhibition in assay [2] of 11%.

Take `CC(NC(=O)C(=O)c1c[nH]c2ccccc12)C(=O)O` (stereo not drawn): the inhibition in assay [2] amounted to 72%.

In assay [2], `COc1ccc2[nH]cc(C(=O)C(=O)NC(C(=O)O)C(C)C)c2c1` (stereo not drawn) returned an inhibition of 12%.

`O=C(NC(Cc1ccc(O)cc1)C(=O)O)C(=O)c1c[nH]c2ccccc12` (stereo not drawn) gave an inhibition in assay [2] of 27%.

As to `O=C(NC(Cc1ccc(O)cc1)C(=O)O)C(=O)c1c[nH]c2ccc(Br)cc12` (stereo not drawn), the inhibition in assay [2] came out at 37%.

With `CCOC(=O)CNC(=O)C(=O)c1c[nH]c2ccccc12`, the inhibition in assay [2] came to 84%.

In turn, `CC(NC(=O)C(=O)c1c[nH]c2ccc([N+](=O)[O-])cc12)C(=O)O` (stereo not drawn) showed a pIC50 in assay [1] of 5.21. The inhibition in assay [2] is 94%.

Take `CCOC(=O)CNC(=O)C(=O)c1c[nH]c2ccc(Br)cc12`: the pIC50 in assay [1] was 5.70. In assay [2], the inhibition turned out to be 100%.

Compound `CCOC(=O)C(C)NC(=O)C(=O)c1c[nH]c2ccc(Br)cc12` (stereo not drawn) had a pIC50 in assay [1] of 5.32. Moreover, the inhibition in assay [2] came out at 100%.

In the case of `CCOC(=O)C(Cc1c[nH]c2ccccc12)NC(=O)C(=O)c1c[nH]c2ccccc12` (stereo not drawn), in assay [2], the inhibition turned out to be 70%.

In assay [2], `O=C(NC(Cc1ccccc1)C(=O)O)C(=O)c1c[nH]c2ccc(Br)cc12` (stereo not drawn) came in with an inhibition of 62%.

In assay [1], `COC(=O)C(Cc1ccc(O)cc1)NC(=O)C(=O)c1c[nH]c2ccc([N+](=O)[O-])cc12` (stereo not drawn) had a pIC50 of 4.70. For the same compound, in assay [2], the inhibition was found to be 100%.

In turn, `O=C1CN=C(c2ccccc2)c2cc([N+](=O)[O-])ccc2N1` [NITRAZEPAM] showed a negative-log IC50 (pIC50) in assay [1] of 7.42.

In assay [2], `COc1ccc2[nH]cc(C(=O)C(=O)NC(Cc3ccccc3)C(=O)O)c2c1` (stereo not drawn) returned an inhibition of 38%.

Consider `CCOC(=O)C(Cc1c[nH]c2cc([N+](=O)[O-])ccc12)NC(=O)C(=O)c1c[nH]c2ccccc12` (stereo not drawn), for which, in assay [2], the inhibition worked out at 48%.

Compound `CCOC(=O)C(NC(=O)C(=O)c1c[nH]c2ccccc12)C(C)C` (stereo not drawn) displayed an inhibition in assay [2] of 77%.

Take `CCOC(=O)CNC(=O)C(=O)c1c[nH]c2ccc(Cl)cc12`: in assay [1], the pIC50 was 5.27. In assay [2], the inhibition is 100%.

On to `CCOC(=O)C(NC(=O)C(=O)c1c[nH]c2ccc(Cl)cc12)C(C)C` (stereo not drawn), for which the inhibition in assay [2] is 62%.

In the case of `CCOC(=O)C(Cc1c[nH]c2ccccc12)NC(=O)C(=O)c1c[nH]c2ccc(Br)cc12` (stereo not drawn), the negative-log IC50 (pIC50) in assay [1] was 4.66. This compound displayed an inhibition in assay [2] of 100%.

Turning to `CCOC(=O)C(Cc1c[nH]c2ccccc12)NC(=O)C(=O)c1c[nH]c2ccc([N+](=O)[O-])cc12` (stereo not drawn), the inhibition in assay [2] was found to be 59%.

In the case of `CCOC(=O)C(Cc1ccc(O)cc1)NC(=O)C(=O)c1c[nH]c2ccc(Br)cc12` (stereo not drawn), the inhibition in assay [2] turned out to be 68%.

`CC(C)C(NC(=O)C(=O)c1c[nH]c2ccc(Cl)cc12)C(=O)O` (stereo not drawn) registered an inhibition in assay [2] of 68%.

In the case of `CCOC(=O)C(C)NC(=O)C(=O)c1c[nH]c2ccc(Cl)cc12` (stereo not drawn), in assay [1], the pIC50 is 6.30. This compound gave an inhibition in assay [2] of 100%.

For `O=C(NC(Cc1c[nH]c2ccccc12)C(=O)O)C(=O)c1c[nH]c2ccc(Br)cc12` (stereo not drawn), the inhibition in assay [2] was determined as 66%.

As to `CN1C(=O)CN=C(c2ccccc2)c2cc(Cl)ccc21` [DIAZEPAM], the negative-log IC50 (pIC50) in assay [1] was 7.39.

For `O=C(O)CNC(=O)C(=O)c1c[nH]c2ccc(Cl)cc12`, in assay [1], the negative logarithm of the IC50 (pIC50) was 4.42. In assay [2], this compound gave an inhibition of 82%.

With `CC(C)C(NC(=O)C(=O)c1c[nH]c2ccc(Br)cc12)C(=O)O` (stereo not drawn), the inhibition in assay [2] amounted to 72%.

On to `CCOC(=O)C(Cc1c[nH]c2ccccc12)NC(=O)C(=O)c1c[nH]c2ccc(Cl)cc12` (stereo not drawn), for which, in assay [2], the inhibition was 55%.

`O=C(NC(Cc1c[nH]c2ccccc12)C(=O)O)C(=O)c1c[nH]c2ccc(Cl)cc12` (stereo not drawn) displayed an inhibition in assay [2] of 61%.

In turn, `O=C(NC(Cc1ccc(O)cc1)C(=O)O)C(=O)c1c[nH]c2ccc([N+](=O)[O-])cc12` (stereo not drawn) showed a pIC50 in assay [1] of 4.12. In addition, the inhibition in assay [2] stood at 81%.

Compound `CC(C)C(NC(=O)C(=O)c1c[nH]c2ccccc12)C(=O)O` (stereo not drawn) had an inhibition in assay [2] of 28%.

`CCOC(=O)C(NC(=O)C(=O)c1c[nH]c2ccc(OC)cc12)C(C)C` (stereo not drawn): the inhibition in assay [2] worked out at 66%.

In assay [2], `O=C(NC(Cc1c[nH]c2cc([N+](=O)[O-])ccc12)C(=O)O)C(=O)c1c[nH]c2ccccc12` (stereo not drawn) had an inhibition of 31%.

The compound `CCOC(=O)C(Cc1ccc(O)cc1)NC(=O)C(=O)c1c[nH]c2ccc(Cl)cc12` (stereo not drawn) showed a negative-log IC50 (pIC50) in assay [1] of 4.10. In assay [2], this compound gave an inhibition of 89%.

In assay [2], `CCOC(=O)C(Cc1ccccc1)NC(=O)C(=O)c1c[nH]c2ccc(OC)cc12` (stereo not drawn) yielded an inhibition of 60%.

As for `CNC1=Nc2ccc(Cl)cc2C(c2ccccc2)=[N+]([O-])C1` [CHLORDIAZEPOXIDE], the pIC50 in assay [1] is 5.96.

As to `CC(NC(=O)C(=O)c1c[nH]c2ccc(Cl)cc12)C(=O)O` (stereo not drawn), the pIC50 in assay [1] is 4.66. Moreover, in assay [2], the inhibition came out at 93%.

On to `CCOC(=O)C(C)NC(=O)C(=O)c1c[nH]c2ccc([N+](=O)[O-])cc12` (stereo not drawn), for which, in assay [1], the pIC50 was 6.70. The inhibition in assay [2] is 100%.

Compound `O=C(NC(Cc1ccc(O)cc1)C(=O)O)C(=O)c1c[nH]c2ccc(Cl)cc12` (stereo not drawn) came in with an inhibition in assay [2] of 67%.

Regarding `CCOC(=O)C(C)NC(=O)C(=O)c1c[nH]c2ccccc12` (stereo not drawn), the inhibition in assay [2] was 80%.

In assay [2], `COC(=O)C(Cc1ccc(O)cc1)NC(=O)C(=O)c1c[nH]c2ccccc12` (stereo not drawn) displayed an inhibition of 50%.

In assay [2], `O=C(O)CNC(=O)C(=O)c1c[nH]c2ccccc12` registered an inhibition of 20%.

`CCOC(=O)C(NC(=O)C(=O)c1c[nH]c2ccc(Br)cc12)C(C)C` (stereo not drawn) came in with an inhibition in assay [2] of 88%.

For orientation: pIC50 means the negative decadic logarithm of the IC50, by convention in mol/L. Low values mean a large IC50, high ones a small IC50. Usually inhibition stands for the share of the control response that was lost under treatment. Higher therefore signals a strong effect.
